This note sets out measurements from ChEMBL document CHEMBL3860093, “Cyclic peptide-based potent and selective SIRT1/2 dual inhibitors harboring Nε-thioacetyl-lysine” (Bioorg Med Chem Lett, 2016).

pIC50: −log10 of the molar value.

In data set [1] the target is T1, NAD-dependent protein deacetylase sirtuin-1 (Homo sapiens, UniProt Q96EB6).
T1 sequence (Q96EB6 whole entry): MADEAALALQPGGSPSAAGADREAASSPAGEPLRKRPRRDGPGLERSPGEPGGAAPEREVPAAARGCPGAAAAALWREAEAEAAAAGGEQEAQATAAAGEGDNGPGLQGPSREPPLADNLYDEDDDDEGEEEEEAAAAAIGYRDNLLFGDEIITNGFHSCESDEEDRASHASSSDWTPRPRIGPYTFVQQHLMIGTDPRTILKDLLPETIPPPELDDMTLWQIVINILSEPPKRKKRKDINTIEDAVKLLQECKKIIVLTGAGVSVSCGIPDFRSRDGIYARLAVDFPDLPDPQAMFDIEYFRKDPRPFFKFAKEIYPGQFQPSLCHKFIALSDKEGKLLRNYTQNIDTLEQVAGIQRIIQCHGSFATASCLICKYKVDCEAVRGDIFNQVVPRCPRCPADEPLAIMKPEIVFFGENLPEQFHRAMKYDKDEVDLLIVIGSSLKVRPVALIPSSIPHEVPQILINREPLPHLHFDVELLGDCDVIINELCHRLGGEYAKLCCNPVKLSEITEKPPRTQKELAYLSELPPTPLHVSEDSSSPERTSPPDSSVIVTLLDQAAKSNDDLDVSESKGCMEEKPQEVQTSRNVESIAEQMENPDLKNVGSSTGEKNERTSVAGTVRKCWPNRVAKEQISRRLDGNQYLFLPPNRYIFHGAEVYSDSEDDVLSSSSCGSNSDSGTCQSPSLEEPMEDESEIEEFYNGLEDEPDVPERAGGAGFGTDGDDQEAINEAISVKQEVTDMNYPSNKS
In words: Inhibition of recombinant human GST or His6-tagged SIRT1 using H2N-HK-[Nepsilon-acetyl-lysine]-LM-COOH as substrate incubated for 10 mins in presence of beta-NAD+ by HPLC based assay.

Data set [2] deals with T2, NAD-dependent protein deacetylase sirtuin-2 (Homo sapiens, UniProt Q8IXJ6).
T2 sequence (Q8IXJ6 whole entry): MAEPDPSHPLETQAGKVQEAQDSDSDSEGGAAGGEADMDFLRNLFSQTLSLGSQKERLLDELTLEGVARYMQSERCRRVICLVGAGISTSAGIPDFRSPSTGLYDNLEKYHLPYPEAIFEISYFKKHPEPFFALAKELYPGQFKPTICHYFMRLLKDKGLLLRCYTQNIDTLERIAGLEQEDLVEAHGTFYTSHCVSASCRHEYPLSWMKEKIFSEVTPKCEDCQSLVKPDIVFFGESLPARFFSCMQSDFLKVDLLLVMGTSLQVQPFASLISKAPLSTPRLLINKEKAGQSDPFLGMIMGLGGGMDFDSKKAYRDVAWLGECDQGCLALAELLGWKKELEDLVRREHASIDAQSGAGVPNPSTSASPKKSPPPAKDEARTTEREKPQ
In words: Inhibition of recombinant human His6-tagged SIRT2 using H2N-HK-[Nepsilon-acetyl-lysine]-LM-COOH as substrate incubated for 12 mins in presence of beta-NAD+ by HPLC based assay.

The target of data set [3] is T3, NAD-dependent protein deacetylase sirtuin-3, mitochondrial (Homo sapiens, UniProt Q9NTG7).
T3 sequence (Q9NTG7 whole entry): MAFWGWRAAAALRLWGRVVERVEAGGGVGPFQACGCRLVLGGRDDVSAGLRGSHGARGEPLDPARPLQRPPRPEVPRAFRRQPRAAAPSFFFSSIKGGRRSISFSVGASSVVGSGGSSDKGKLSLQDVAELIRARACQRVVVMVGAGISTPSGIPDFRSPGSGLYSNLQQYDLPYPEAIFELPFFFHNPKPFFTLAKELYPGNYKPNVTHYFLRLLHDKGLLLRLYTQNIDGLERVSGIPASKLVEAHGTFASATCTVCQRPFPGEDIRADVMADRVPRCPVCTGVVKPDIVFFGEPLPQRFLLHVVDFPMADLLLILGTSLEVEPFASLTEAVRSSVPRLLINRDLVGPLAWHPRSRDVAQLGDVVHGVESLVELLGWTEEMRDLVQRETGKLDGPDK
In words: Inhibition of recombinant human His6-tagged SIRT3 using H2N-HK-[Nepsilon-acetyl-lysine]-LM-COOH as substrate incubated for 10 mins in presence of beta-NAD+ by HPLC based assay.

For data set [4], the species on record is Homo sapiens. The experiment in a line: Selectivity ratio of IC50 for recombinant human His6-tagged SIRT3 to IC50 for recombinant human GST or His6-tagged SIRT1.
For data set [5], the species on record is Homo sapiens. In words: Selectivity ratio of IC50 for recombinant human His6-tagged SIRT3 to IC50 for recombinant human His6-tagged SIRT2.
Data set [6] concerns the target NAD-dependent protein deacylase sirtuin-5, mitochondrial (Homo sapiens, UniProt Q9NXA8). The experiment in a line: Inhibition of recombinant human GST-tagged SIRT5 using CH3CONH-AR-[Nepsilon-succinyl-lysine]-ST-CONH2 as substrate incubated for 5 mins in presence of beta-NAD+ by HPLC based assay.
Data set [7] concerns the target NAD-dependent protein deacylase sirtuin-6 (Homo sapiens, UniProt Q8N6T7). The experiment in a line: Inhibition of recombinant human His6-tagged SIRT6 using H2N-EALPK-[Nepsilon-myristoyl-lysine]-TGGPQ-CONH2 as substrate incubated for 12 mins in presence of beta-NAD+ by HPLC based assay.
A short description of data set [8]: Stability of compound assessed as Streptomyces griseus pronase-mediated compound hydrolysis up to 60 mins by HPLC analysis. Conditions: 1 h. In kind it is ADME.
Data set [9] concerns the target T4, NAD-dependent protein deacetylase sirtuin-1 (Homo sapiens) (UniProt Q96EB6).
T4 sequence (whole entry): T1 sequence (Q96EB6 whole entry)
The experiment in a line: Inhibition of SIRT1 in human HCT116 cells assessed as increase in p53 acetylation at lysine-382 residue after 8 hrs by Western blot assay. The format is cell-based. Conditions: HCT-116. (In western blotting, separated proteins are transferred to a membrane and probed.)

The nature of data set [10]: Stability of compound assessed as Streptomyces griseus pronase-mediated compound hydrolysis up to 6 mins by HPLC analysis. In kind it is ADME. The settings on record: 0.1 h.
A short description of data set [11]: Stability of compound assessed as Streptomyces griseus pronase-mediated compound hydrolysis up to 40 mins by HPLC analysis. In kind it is ADME.

NAD-dependent protein deacylase sirtuin-6, sequence (Q8N6T7 whole entry): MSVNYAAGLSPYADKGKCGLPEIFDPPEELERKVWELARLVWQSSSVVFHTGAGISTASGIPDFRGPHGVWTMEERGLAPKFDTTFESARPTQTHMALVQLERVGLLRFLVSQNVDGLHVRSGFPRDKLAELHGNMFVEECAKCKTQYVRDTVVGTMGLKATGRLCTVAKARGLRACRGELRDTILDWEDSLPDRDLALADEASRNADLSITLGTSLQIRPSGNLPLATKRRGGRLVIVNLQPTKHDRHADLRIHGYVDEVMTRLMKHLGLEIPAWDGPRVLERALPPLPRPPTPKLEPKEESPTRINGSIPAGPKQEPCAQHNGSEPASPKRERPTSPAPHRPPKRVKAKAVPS
NAD-dependent protein deacylase sirtuin-5, mitochondrial, sequence (Q9NXA8 whole entry): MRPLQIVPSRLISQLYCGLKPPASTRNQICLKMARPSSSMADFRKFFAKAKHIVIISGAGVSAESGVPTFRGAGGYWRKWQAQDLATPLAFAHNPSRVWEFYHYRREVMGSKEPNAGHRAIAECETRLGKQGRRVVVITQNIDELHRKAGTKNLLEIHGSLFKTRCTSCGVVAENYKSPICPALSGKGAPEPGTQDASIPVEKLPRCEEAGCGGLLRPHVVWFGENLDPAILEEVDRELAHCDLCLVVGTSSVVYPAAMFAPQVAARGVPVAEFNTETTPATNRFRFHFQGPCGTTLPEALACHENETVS

As to `CCCC[C@@H]1NC(=O)CCCCCCC(=O)NC[C@@H](C(N)=O)NC(=O)[C@H](CCCCNC(C)=S)NC1=O`, the figures for the negative logarithm of the IC50 (pIC50) in data set [1], in [2] and in [3] were 6.35, 6.74 and 5.97, respectively. The Ratio IC50 in data set [4] amounted to 2.4; in data set [5], 5.9.
For `CC(=S)NCCCC[C@@H]1NC(=O)[C@H](Cc2csc3ccccc23)NC(=O)CCCCCCC(=O)NCC[C@@H](C(N)=O)NC1=O`, the negative logarithm of the IC50 (pIC50) in data set [1] was 5.90; in [2], 5.94; in data set [3], 5.00; in data set [6], less than 2.70; in data set [7] it was less than 3.00. In addition, the Ratio IC50 in [4] was found to be 7.9; in [5] it was 8.6.
As to `CC(=S)NCCCC[C@@H]1NC(=O)[C@H](Cc2ccc3ccccc3c2)NC(=O)CCCCCCC(=O)NCCC[C@@H](C(N)=O)NC1=O`, the pIC50 in data set [1] is 6.74; in [2], 5.92; in data set [3], 5.49. Also, the Ratio IC50 in [4] worked out at 17.8; in data set [5] it was 2.7.
In the same order, the values of `CCCC[C@@H]1NC(=O)CCCCCCC(=O)NCCCC[C@@H](C(N)=O)NC(=O)[C@H](CCCCNC(C)=S)NC1=O` are 6.66, 6.62, 6.33, 2.1 and 2.
On to `CC(=S)NCCCC[C@@H]1NC(=O)[C@H](Cc2ccc3ccccc3c2)NC(=O)CCCCCCC(=O)NCCCC[C@@H](C(N)=O)NC1=O`, for which the values for the pIC50 in [1], in data set [2] and in data set [3] were 6.24, 5.85 and 5.71, respectively. In addition, the results for the Ratio IC50 in [4] and in [5] were 3.4 and 1.4, respectively.
`CC(=S)NCCCC[C@@H]1NC(=O)CNC(=O)CCCCCCC(=O)NCCCC[C@@H](C(N)=O)NC1=O`: the pIC50 is 5.42 in data set [1], 5.41 in data set [2] and 5.47 in data set [3]. The Ratio IC50 in [4] and in [5] was 0.9 throughout.
As for `CCCC[C@@H]1NC(=O)CCCCCCC(=O)NCCC[C@@H](C(N)=O)NC(=O)[C@H](CCCCNC(C)=S)NC1=O`, the pIC50 in [1] was 6.57; in [2] it was 6.66; in data set [3] it was 5.74. Also, in data set [8], the Stability result is recorded as “Stable”. For the same compound, the inhibition result in data set [9] was “Dose-dependent effect”.
With `CC(=S)NCCCC[C@@H]1NC(=O)[C@H](Cc2ccc3ccccc3c2)NC(=O)CCCCCCC(=O)NC[C@@H](C(N)=O)NC1=O`, the negative-log IC50 (pIC50) in data set [1] is 6.15; in [2], 5.82; in data set [3] it was 5.46. Also, the Ratio IC50 in data set [4] came out at 4.9; in data set [5] it was 2.3.
For the compound H-HKK(Ac)LM-OH, in data set [10], the Stability result was “Unstable”.
With `CC(=S)NCCCC[C@@H]1NC(=O)CNCCC(=O)NCCCC[C@@H](C(N)=O)NC1=O`, the values for the pIC50 in data set [1], in data set [2] and in [3] were 4.66, 4.61 and 4.24, respectively. In addition, the Ratio IC50 in data set [4] is 2.6; in [5] it was 2.3.
`CC(=S)NCCCC[C@@H]1NC(=O)[C@H](Cc2csc3ccccc23)NC(=O)CCCCCCC(=O)NCCCC[C@@H](C(N)=O)NC1=O`: the pIC50 in [1] was 6.30; in data set [2] it was 6.05; in data set [3] it was 5.42; in data set [6], less than 3.70; in data set [7] it was less than 3.00. The Ratio IC50 was 7.6 in [4] and 4.3 in data set [5]. Moreover, the Stability result in data set [11] was “Stable”.
With `CC(=S)NCCCC[C@@H]1NC(=O)[C@H](Cc2ccc3ccccc3c2)NC(=O)CCCCCCC(=O)NCC[C@@H](C(N)=O)NC1=O`, the pIC50 is 5.96 in data set [1], 5.62 in data set [2], less than 2.22 in data set [6] and less than 2.40 in data set [7]. The Stability entry in data set [8] was “Stable”.
`CC(C(=O)Nc1cccc(/N=C/c2c(O)ccc3ccccc23)c1)c1ccccc1` (stereo unspecified) [SALERMIDE]: the results for the pIC50 in data set [1] and in data set [2] were 4.43 and 4.69, respectively.
Take `CN(C)CCCCC(=O)Nc1ccc(NC(=S)NC(=O)c2ccc(C(C)(C)C)cc2)cc1`: the negative logarithm of the IC50 (pIC50) in data set [3] was 4.59.
As to `CC(=S)NCCCC[C@@H]1NC(=O)[C@H](Cc2csc3ccccc23)NC(=O)CCCCCCC(=O)NC[C@@H](C(N)=O)NC1=O`, the pIC50 in [1] is 5.92; in [2] it was 5.37; in data set [3] it was 5.60. Also, the Ratio IC50 in data set [4] was 2.1; in data set [5] it was 0.6.
With `CC(=S)NCCCC[C@@H]1NC(=O)[C@H](Cc2csc3ccccc23)NC(=O)CCCCCCC(=O)NCCC[C@@H](C(N)=O)NC1=O`, the negative logarithm of the IC50 (pIC50) is 6.17 in data set [1]; 6.32 in data set [2]; 5.50 in data set [3]; less than 3.52 in [6]; less than 2.70 in data set [7]. Further, the results for the Ratio IC50 in data set [4] and in data set [5] were 4.7 and 6.6, respectively.
In the case of `CCCC[C@@H]1NC(=O)CCCCCCC(=O)NCC[C@@H](C(N)=O)NC(=O)[C@H](CCCCNC(C)=S)NC1=O`, the negative-log IC50 (pIC50) in data set [1] is 6.09; in [2], 6.38; in [3], 5.83. Moreover, the Ratio IC50 in data set [4] turned out to be 1.8; in data set [5], 3.5.

What is called pIC50 is the negative decadic logarithm of the IC50, by convention in mol/L.
